Source: PMC10238325, “Optimization of antimicrobial peptides for the application against biocorrosive bacteria” (Applied Microbiology and Biotechnology, 2023)
Converted amounts (≈) assume the structure as drawn. Where a SMILES comes first, the peptide text is derived from it. Where no end group is shown, it is not given here.

What was measured:
[1] = tested on: Desulfovibrio desulfuricans DSM 642; format: cell-based; settings: DSM 642, 48 h
Experimental: (§1) The following SRB were used: Desulfovibrio vulgaris DSM 644, Desulfovibrio desulfuricans DSM 642, and Desulfovibrio indonesiensis DSM 15121. The Postgate medium (DSMZ medium 63) with a modification of 0.004 g/L FeSO4 × 7 H2O and 0.3 g/L Tri-sodium citrate (and 2% NaCl for D. indonesiensis) was flushed with nitrogen gas. Each culture was subcultured 1:100. Cultivation occurred for 48 h, 37 °C (30 °C for D. desulfuricans), without shaking. The following SOB was used: Thiomonas intermedia DSM 18155. Therefore, the Thiomonas medium (DSMZ medium 35a) was used, subcultured 1:100, and cultivated for 48 h, 30 °C, 115 rpm. Escherichia coli K12 ATCC 25404 was grown in LB Lennox medium (Carl Roth GmbH & Co.KG Karlsruhe, Germany) for 18 h, 37 °C, 115 rpm and diluted 1:1000 in Mueller-Hinton broth (Carl Roth GmbH & Co.KG Karlsruhe, Germany). Incubation during the assay took place for 24 h, 37 °C, 115 rpm.
(§2) A stock solution of 1 mg/mL in milliQ from the respective peptide and a concentration range of 1000–1.95 μg/mL was prepared by serial 2-fold dilution. 20 μL of each test substance (n=3) per well was added to a 96-well microtiter plate (polystyrene). 100 μL of each bacteria suspension (start OD600: 0.001) was added to the well with test substance, as well as 120 μL as growth control (n=35) and 120 μL medium (n=1) as sterile control to an empty well. To avoid evaporation, all microtiter plates were cultivated in air-tight containers during the incubation period. Microtiter plates for testing on SRB were prepared in the anaerobic chamber (Coy Laboratory Products Inc. Grass Lake, United States of America) and cultivated in air-tight containers including Oxoid anaerobic bag (Thermo Fisher Scientific Inc. Waltham, United States of America) to ensure anaerobic conditions. The microtiter plates were measured before and after incubation at OD600, and the growth inhibition in % was determined with the following equation:1 inhibition%=ΔOD600testsubstance/ΔOD600growthcontrole∙100%
(§3) The minimum inhibitory concentration (MIC) describes the lowest concentration where no bacterial growth could be detected. Besides the MIC100, where a complete reduction of bacterial growth could be detected, other partial inhibitions such as MIC95 or MIC50, where 95% or 50% growth inhibition occurs, can be specified.

[2] = tested on: Desulfovibrio vulgaris DSM 644; format: cell-based; settings: for MIC95 D. vulgaris: 95% growth inhibition, 96-well microdilution, 2-fold series 1000–1.95 μg/mL, n=3, OD600, modified Postgate medium, anaerobic
Experimental: as §1, §2, §3

[3] = tested on: Thiomonas intermedia DSM 18155; format: cell-based; settings: DSM 18155, 48 h
Experimental: as §1, §2, §3

in vitro = in vitro ADME, Desulfovibrio vulgaris; settings: for remaining at 48 h, 1 mg/mL / remaining at 168 h, 1 mg/mL: cells or culture medium
Experimental: The analysis of the peptides was performed on a RP-HPLC (Agilent 1100, detector: diode array detector G1315A, column: Phenomenex®-Aeris™ 2.6 μm Peptide XB-C18 100 Å,150 × 2.1 mm), and ESI-LC-MS was performed (Knauer, detector: Surveyor MSQ, column: Eurospher II 100-2 C18A, 100 × 2 mm, 2 μm). The gradient was performed with a flow rate of 0.25 mL/min from 99% of mobile phase A (0.1% TFA in milliQ) over 15 min to 95% of mobile phase B (0.1% TFA in acetonitrile), kept at 95% with B for 2 min, and equilibrated at 99% with A for another 3 min. 20 μL (RP-HPLC) and 10 μL (ESI-LC-MS) peptide solution (250 μg/mL in milliQ) was injected.
For the stability tests, a bacterial suspension (7 days old) of D. vulgaris was centrifuged at 5000 rpm for 10 min. 1 mg/mL peptide solution was prepared within the supernatant and incubated at 37 °C for 7 days. The respective aliquots (t=0, 48, 72, 168 h) were mixed 1:10 with quenching solution (milliQ + 0.08% trifluoroacetic acid) and analyzed in triplicates according to the protocol described above for RP-HPLC. In addition, after incubation in the supernatant (168 h), the peptide (P3.2.) was analyzed for activity using the MIC assay.

[4] = tested on: Desulfovibrio indonesiensis DSM 15121; experiment: MIC assay against D. indonesiensis; format: cell-based; settings: 95% growth inhibition; 96-well microdilution, n=3, OD600; modified Postgate medium with 2% NaCl, anaerobic, 48 h, 37 °C, without shaking
Experimental: as §1, §2, §3

SRB = settings: ref Greene et al. [2006]; cited from earlier work
Description: The current strategy to control microbial-influenced corrosion is based on biocides, which lead to fast resistance, requiring higher and higher concentrations to eradicate the bacteria. Alternative treatment strategies are based on additives like D-amino acids or chelates to biocides to reduce the required biocide concentration by a synergistic effect. However, these additives are not inhibitory on their own, and although a reduced biocide concentration is required, the presence of biocide is still necessary (Jia et al. [2017]; Wen et al. [2012]; Wen et al. [2009]). In this paper, a new method ...

Molecule	MIC50 D. desulfuricans [1]	MIC95 D. vulgaris ([2]; 48 h, 37 °C, without shaking)	remaining at 48 h, 1 mg/mL (in vitro)	remaining at 168 h, 1 mg/mL (in vitro)	MIC95 D. indonesiensis [4]	further results
CC[C@H](C)[C@H](NC(=O)[C@H](CCCNC(=N)N)NC(=O)[C@H](CS)NC(=O)[C@H](CC(C)C)NC(=O)[C@@H](N)CCCNC(=N)N)C(=O)N[C@H](C(=O)N[C@H](C(=O)N[C@H](C(=O)N[C@@H](CCCNC(=N)N)C(=O)N[C@H](C(=O)N[C@@H](CS)C(=O)N[C@@H](CCCNC(=N)N)C(=O)O)C(C)C)[C@@H](C)CC)C(C)C)C(C)C [Bactenecin] (H-RLCRIVVIRVCR-OH; N-terminus and C-terminus assumed)	250 µg/mL (≈ 168 µM)	62.5 µg/mL (≈ 42.1 µM)	41%	17%	31.25 µg/mL (≈ 21 µM)	MIC50 T. intermedia [3]: 62.5 µg/mL (≈ 42.1 µM); stability in supernatant (in words) (in vitro): significant stability loss after only 48 h
CC(C)C[C@H](NC(=O)[C@H](CC(C)C)NC(=O)[C@H](CCCCN)NC(=O)[C@H](CCCCN)NC(=O)[C@H](CC(C)C)NC(=O)[C@H](Cc1c[nH]c2ccccc12)NC(=O)[C@H](CCCCN)NC(=O)[C@H](Cc1c[nH]c2ccccc12)NC(=O)[C@H](CC(C)C)NC(=O)[C@H](CCCCN)NC(=O)[C@H](CCCCN)NC(=O)CCCCCN)C(N)=O [Peptide P3.2.] (HELM PEPTIDE1{[NCCCCCC(=O)[*:2]].K.K.L.W.K.W.L.K.K.L.L.[am]}$$$$V2.0)	250 µg/mL (≈ 157 µM)	15.63 µg/mL (≈ 9.79 µM)	99%	85%	125 µg/mL (≈ 78.3 µM)	MIC50 D. vulgaris after incubation in supernatant ([2]; DSM 644, 168 h): 31.25 µg/mL (≈ 19.6 µM); MIC95 D. vulgaris after incubation in supernatant ([2]; peptide (1 mg/mL) first incubated 168 h in D. vulgaris supernatant, then dilution series, 48 h, 37 °C, without shaking): 62.5 µg/mL (≈ 39.2 µM)
CC(C)C[C@H](NC(=O)[C@H](CC(C)C)NC(=O)[C@H](CCCCN)NC(=O)[C@H](CCCCN)NC(=O)[C@H](CC(C)C)NC(=O)[C@H](Cc1c[nH]c2ccccc12)NC(=O)[C@H](CCCCN)NC(=O)[C@H](Cc1c[nH]c2ccccc12)NC(=O)[C@H](CC(C)C)NC(=O)[C@H](CCCCN)NC(=O)[C@H](CCCCN)NC(=O)CCCCCCCN)C(N)=O [Peptide P3.3.] (HELM PEPTIDE1{[NCCCCCCCC(=O)[*:2]].K.K.L.W.K.W.L.K.K.L.L.[am]}$$$$V2.0)	250 µg/mL (≈ 154 µM)					
CCCCCCCCCC(=O)N[C@@H](CCCCN)C(=O)N[C@@H](CCCCN)C(=O)N[C@@H](CC(C)C)C(=O)N[C@@H](Cc1c[nH]c2ccccc12)C(=O)N[C@@H](CCCCN)C(=O)N[C@@H](Cc1c[nH]c2ccccc12)C(=O)N[C@@H](CC(C)C)C(=O)N[C@@H](CCCCN)C(=O)N[C@@H](CCCCN)C(=O)N[C@@H](CC(C)C)C(=O)N[C@@H](CC(C)C)C(N)=O [Peptide P3.4.] (HELM PEPTIDE1{[CCCCCCCCCC(=O)[*:2]].K.K.L.W.K.W.L.K.K.L.L.[am]}$$$$V2.0)	125 µg/mL (≈ 76.3 µM)	31.25 µg/mL (≈ 19.1 µM)			31.25 µg/mL (≈ 19.1 µM)	
CCCCCCCCCCCC(=O)N[C@@H](CCCCN)C(=O)N[C@@H](CCCCN)C(=O)N[C@@H](CC(C)C)C(=O)N[C@@H](Cc1c[nH]c2ccccc12)C(=O)N[C@@H](CCCCN)C(=O)N[C@@H](Cc1c[nH]c2ccccc12)C(=O)N[C@@H](CC(C)C)C(=O)N[C@@H](CCCCN)C(=O)N[C@@H](CCCCN)C(=O)N[C@@H](CC(C)C)C(=O)N[C@@H](CC(C)C)C(N)=O [Peptide P3.5.] (HELM PEPTIDE1{[CCCCCCCCCCCC(=O)[*:2]].K.K.L.W.K.W.L.K.K.L.L.[am]}$$$$V2.0)	62.5 µg/mL (≈ 37.5 µM)	62.5 µg/mL (≈ 37.5 µM)			31.25 µg/mL (≈ 18.8 µM)	
CCCCCCCCCCCCCC(=O)N[C@@H](CCCCN)C(=O)N[C@@H](CCCCN)C(=O)N[C@@H](CC(C)C)C(=O)N[C@@H](Cc1c[nH]c2ccccc12)C(=O)N[C@@H](CCCCN)C(=O)N[C@@H](Cc1c[nH]c2ccccc12)C(=O)N[C@@H](CC(C)C)C(=O)N[C@@H](CCCCN)C(=O)N[C@@H](CCCCN)C(=O)N[C@@H](CC(C)C)C(=O)N[C@@H](CC(C)C)C(N)=O [Peptide P3.6.] (HELM PEPTIDE1{[CCCCCCCCCCCCCC(=O)[*:2]].K.K.L.W.K.W.L.K.K.L.L.[am]}$$$$V2.0)	125 µg/mL (≈ 73.8 µM)	125 µg/mL (≈ 73.8 µM)			62.5 µg/mL (≈ 36.9 µM)	
O=S(=O)([O-])[O-].OC[P+](CO)(CO)CO.OC[P+](CO)(CO)CO [THPS, tetrakis(hydroxymethyl)phosphonium sulfate]						concentration required to inhibit SRB growth (SRB): 40 µg/mL
Ac-KKLWKWLKKLL-NH2 [Peptide P3.1.]	500 µg/mL	31.25 µg/mL			125 µg/mL	
FFGKVLKLIRKIF [DASamP1]	500 µg/mL		99%			MIC50 T. intermedia [3]: 125 µg/mL
FKKFWKWFRRF [Peptide S6L3-33]	500 µg/mL		93%	85%		MIC50 T. intermedia [3]: 62.5 µg/mL
KKLLKWLKKLL [Peptide L5K5W]	>1000 µg/mL		91%	80%		MIC50 T. intermedia [3]: 500 µg/mL
KKLWKWLKKLL [Peptide L5K5W-W4I6]	>1000 µg/mL		94%	86%		
KKLWKWLKKLL-NH2 [Peptide P2.1.]	250 µg/mL					
RRLWRWLRRLL [Peptide P1.1.]	1000 µg/mL					
